In paper PMC11618496, “SHIV remission in macaques with early treatment initiation and ultra long-lasting antiviral activity” (Nature Communications, 2024):
Where “and” joins values, the source holds several entries; their conditions need not be identical. Equal entries are not always repeated.

Assays:
[1] = Intracellular TFV-DP and FTC-TP in lymph node mononuclear cells and rectal tissues; conditions: lymph node mononuclear cells from axillary or inguinal lymph nodes
[2] = cited from earlier work; for median trough concentration in human PBMCs: reviewer comment, 25mg TAF dose ref 12
[3] = for median concentration in PBMCs during the entire treatment period: eART + VES group; for median (range) concentration in PBMCs, period of full adherence / median (range) concentration in PBMCs, period of suboptimal adherence: eART group; for median (range) concentration in PBMCs, period of full adherence: months 0–3.5, 24 h post-dosing, oral FTC/TAF; for median (range) concentration in PBMCs, period of suboptimal adherence: months 3.5 to 6
Protocol: (§1) RT-SHIV was selected for the study since it contains the HIVHXBc2 RT that is sensitive to RPV. RT-SHIV was obtained through the NIH AIDS Reagent Program, Division of AIDS, NIAID, NIH[17]–[19]. The stock was maintained in liquid nitrogen in individual 1 mL aliquots until use. […] CAB LA and RPV LA were obtained from ViiV Healthcare and Janssen, respectively. […] CAB LA (50 mg/kg) and RPV LA (200 mg/kg) were given intramuscularly once a month[27],[45]. The macaque used in the terminal PK study received CAB LA (50 mg/kg) and RPV LA (200 mg/kg) from Cabenuva®.
(§2) PBMCs were isolated from blood collected in BD Vacutainer® CPT™ Sodium Citrate Cell Preparation Tubes, and red blood cells were lysed with BioLegend RBC lysis buffer. Cell counts and viability were determined using a Guava Cell Counter and Cytosoft data acquisition and analysis software (version 6.02; Millipore Billerica, MA) or a Countess (Invitrogen). Three million viable cells were pelleted, washed with 1 mL of physiological saline, and resuspended in 500 µl ice-cold 80% methanol. Samples were vortexed for 1 min and immediately frozen at − 70 °C. Prior to analysis, cellular debris was pelleted, and supernatants were transferred to new tubes. Supernatants were dried down and reconstituted in 100 μl of 50 mM ammonium acetate buffer (pH 7.0), then centrifuged at 17,000 × g to remove insoluble particulates. […] Calibration curves were generated from serially diluted standards over the range from 0.25 to 10 nM.

[4] = CAB and RPV concentrations in macaque plasma; type: in vivo, Rhesus macaques; conditions: for median plasma levels during the treatment phase: macaques, monthly IM CAB LA 50 mg/kg and RPV LA 200 mg/kg; for plasma concentration, individual macaques: matched to CSF samples; for concentration at 4 weeks: matched to CSF: ~ 6 months of treatment, 4 weeks after the previous CAB LA/RPV LA injection, read-out: Plasma, median (range)
Protocol: Plasma concentrations of CAB were measured weekly.

[5] = no reference given; cited from earlier work
[6] = no reference given; cited from earlier work; remark: listed apart in the source
[7] = parameters: method as in Letendre; conditions: 7-10 days after injection ref Letendre; cited from earlier work
[8] = cited from earlier work; for plasma levels in humans: 400 mg of CAB LA or 600 mg of RPV LA every month for 48 weeks ref 21; for apparent terminal elimination half-life: humans, single intramuscular injection ref 16
[9] = Drug concentrations in cerebrospinal fluid (CSF); type: in vivo, Rhesus macaques; conditions: for Kp at 4 weeks: CSF and plasma, read-out: CSF-to-plasma ratio; for concentration at 4 weeks: CSF
Protocol: (§3) A cocktail of methanol containing internal standards was added to precipitate proteins. After a brief centrifugation and removal of protein precipitates, the supernatant was evaporated to near dryness and re-suspended with mobile phase A. An aqueous-acetonitrile mobile-phase gradient was used to elute the drugs from a C18 column (100*1 mm, Imtakt) and into the analyzer. Drug concentrations were calculated from a standard curve with a range of 0.5–2000 ng/mL using Analyst software. […] Plasma concentrations of CAB were measured weekly. Plasma concentrations of RPV were measured 4 (9 observations), 2 (2 observations), or 3 (2 observations) weeks after the previous injection. The concentrations of RPV in plasma, CSF, and tissues and the concentrations of CAB in CSF were measured at the Clinical Pharmacology and Analytical Chemistry (CPAC) Laboratory, University of North Carolina Center for AIDS Research. The LOQ for RPV in plasma is 1 ng/mL.

in vivo = conditions: female, rhesus monkey
Protocol: as §1, §3

[10] = Extracellular TFV, FTC, CAB and RPV in rectal tissue homogenates; type: in vivo, Rhesus macaques; conditions: collected after 1 to 3 months of ART
Protocol: as §3

[11] = rhesus monkey, in vivo
reverse transcriptase = conditions: Rectal
Protocol: as §2

[12] = rhesus monkey, plasma, intramuscular
[13] = rhesus monkey, intramuscular, 4 weeks after dosing (author rebuttal), read-out: macaque CSF values, approximate
[14] = rhesus monkey, other: oral (FTC) and intramuscular (CAB LA), ~ 6 months of treatment, 4 weeks after the previous CAB LA/RPV LA injection, read-out: CSF, median (range)
[15] = ~ 6 months of treatment, 4 weeks after the previous CAB LA/RPV LA injection
[16] = Tissue concentration, Axillary lymph nodes
[17] = Tissue concentration, Basal ganglia
[18] = Tissue concentration, Cerebellum
[19] = Tissue concentration, Cervical lymph nodes
[20] = Tissue concentration, Iliac lymph nodes
[21] = Tissue concentration, Inguinal lymph nodes
[22] = Tissue concentration, Mesenteric lymph nodes
[23] = Tissue concentration, Spinal cord
[24] = median concentration in brain tissues
[25] = median concentration in lymphoid tissues
[26] = median concentration in the GI tract

CC(Cn1cnc2c(N)ncnc21)OCP(=O)(O)OP(=O)(O)OP(=O)(O)O (stereo in doubt) [TFV-DP, tenofovir diphosphate]
Lymph nodes, median (range) [1]: 367 (142–620) fmol/10^6 cells | median trough concentration in human PBMCs [2]: 523 fmol/10^6 cells | fold higher concentrations in PBMCs and lymphoid tissues than achieved with TDF ([3]; comparison with ref 10): about 10 | median concentration in PBMCs during the entire treatment period [3]: 1162 fmols/10^6 PBMCs | median (range) concentration in PBMCs, period of full adherence [3]: 1753 (275–2809) fmols/10^6 PBMCs | median (range) concentration in PBMCs, period of suboptimal adherence [3]: 329 (63–1688) fmols/10^6 PBMCs | times higher in PBMCs than in humans ([3]; full adherence vs humans treated with 25 mg of TAF): about 3.2

C[C@H]1CO[C@@H]2Cn3cc(C(=O)NCc4ccc(F)cc4F)c(=O)c(O)c3C(=O)N12 [CAB, cabotegravir]
median plasma levels during the treatment phase [4]: 2400 ng/mL | plasma concentration, individual macaques [4]: 1040 ng/mL and 1050 ng/mL and 630 ng/mL and 480 ng/mL | decline of plasma concentration below the PA-IC90 after the last injection [4, 12]: declined below the PA-IC90 two months later | times plasma level above the PA-IC90 during treatment [4, 12]: 13 | concentration at 4 weeks [4, 12]: 835 ng/mL | protein-adjusted 90% inhibitory concentration (PA-IC90) [5]: 166 ng/mL | in vitro EC90 [6]: 0.34 ng/mL | human CSF levels [7]: ~10 ng/mL | plasma levels in humans [8]: 2740 ng/mL | apparent terminal elimination half-life [8]: 39 to 80 days | Kp at 4 weeks ([9]; rhesus monkey, intramuscular): 0.006 | concentration at 4 weeks [9, 13]: ~6 ng/mL | concentration at 4 weeks [9, 14]: 5.95 ng/mL | CSF, median (range) [9, 15]: 5.95 (4.77–7.43) ng/mL | times brain tissue concentration above the in vitro EC90 (in vivo; 3 weeks): ~ 100 | concentration at 3 weeks (in vivo; [16]): 412 ng/g | concentration at 3 weeks (in vivo; [17]): 26 ng/g | concentration at 3 weeks (in vivo; Tissue concentration, Cecum): 1370 ng/g | concentration at 3 weeks (in vivo; [18]): 58 ng/g | concentration at 3 weeks (in vivo; [19]): 583 ng/g | concentration at 3 weeks (in vivo; Tissue concentration, Duodenum): 569 ng/g | concentration at 3 weeks (in vivo; Tissue concentration, Ileum): 695 ng/g | concentration at 3 weeks (in vivo; [20]): 1280 ng/g | concentration at 3 weeks (in vivo; [21]): 975 ng/g | concentration at 3 weeks (in vivo; Tissue concentration, Jejunum): 643 ng/g | concentration at 3 weeks (in vivo; [22]): 23700 ng/g | concentration at 3 weeks (in vivo; Tissue concentration, Rectum): 773 ng/g | concentration at 3 weeks (in vivo; [23]): 288 ng/g | concentration at 3 weeks (in vivo; [24]): 58 ng/g | concentration at 3 weeks (in vivo; [25]): 975 ng/g | concentration at 3 weeks (in vivo; [26]): 695 ng/g | Rectal tissues, extracellular drug, median (range) [10]: 0.60 (0.25–2.65) ng/mg of tissue

Nc1nc(=O)n([C@@H]2CS[C@H](CO)O2)cc1F [FTC, emtricitabine]
concentration at 4 weeks [9, 14]: 2.36 ng/mL | CSF, median (range) [9, 15]: 2.36 (BLQ-2.65) ng/mL | Rectal tissues, extracellular drug, median (range) [10]: 1.48 (0.22–2.16) ng/mg of tissue

Nc1nc(=O)n([C@@H]2CS[C@H](COP(=O)(O)OP(=O)(O)OP(=O)(O)O)O2)cc1F [FTC-TP, emtricitabine triphosphate]
Rectal tissues, intracellular, median (range) [11]: BLQ (BLQ-17) | Panel F ratio dCTP/FTC-TP (reverse transcriptase): 82.22 and 103.48 | concentration in human PBMCs ([2]; humans treated with 25 mg of TAF (TFV-DP) or 300 mg of FTC (FTC-TP) ref 12): 2,060 fmols/10^6 PBMCs | median peak concentration in human PBMCs ([2]; reviewer comment ref 12): 5149 fmol/10^6 cells | median trough concentration in human PBMCs [2]: 2060 fmol/10^6 cells | median concentration in PBMCs during the entire treatment period [3]: 553 fmols/10^6 PBMCs | median (range) concentration in PBMCs, period of full adherence [3]: 573 (333–1528) fmols/10^6 PBMCs | median (range) concentration in PBMCs, period of suboptimal adherence [3]: 306 (undetectable-964) fmols/10^6 PBMCs | fold lower in PBMCs than in humans ([3]; full adherence vs humans treated with 300 mg of FTC): approximately 3.6

Cc1cc(/C=C/C#N)cc(C)c1Nc1ccnc(Nc2ccc(C#N)cc2)n1 [RPV, rilpivirine]
median plasma levels during the treatment phase [4]: 108 ng/mL | plasma concentration, individual macaques [4]: 143 ng/mL and 152 ng/mL and 150 ng/mL and 153 ng/mL | persistence in plasma after the last dose [4, 12]: 2 years | concentration at 4 weeks [4, 12]: 151 ng/mL | protein-adjusted 90% inhibitory concentration (PA-IC90) [5]: 12 ng/mL | in vitro EC90 [6]: 0.66 ng/mL | human CSF levels [7]: ~ 2 ng/ml | plasma levels in humans [8]: 97.5 ng/mL | apparent terminal elimination half-life [8]: 91 to 196 days | Kp at 4 weeks ([9]; rhesus monkey, intramuscular): 0.028 | concentration at 4 weeks [9, 13]: ~4 ng/mL | concentration at 4 weeks [9, 14]: 4.06 ng/mL | times CSF-to-plasma ratio higher than for CAB ([9]; rhesus monkey, in vivo): 4 | CSF, median (range) [9, 15]: 4.06 (2.93–4.52) ng/mL | times brain tissue concentration above the in vitro EC90 (in vivo; 3 weeks): ~ 500 | times median brain tissue concentration higher than that of CAB (in vivo; 3 weeks): 5.8 | concentration at 3 weeks (in vivo; [16]): 773 ng/g | concentration at 3 weeks (in vivo; [17]): 340 ng/g | concentration at 3 weeks (in vivo; Tissue concentration, Cecum): 670 ng/g | concentration at 3 weeks (in vivo; [18]): 259 ng/g | concentration at 3 weeks (in vivo; [19]): 1770 ng/g | concentration at 3 weeks (in vivo; Tissue concentration, Duodenum): 666 ng/g | concentration at 3 weeks (in vivo; Tissue concentration, Ileum): 518 ng/g | concentration at 3 weeks (in vivo; [20]): 736 ng/g | concentration at 3 weeks (in vivo; [21]): 692 ng/g | concentration at 3 weeks (in vivo; Tissue concentration, Jejunum): 697 ng/g | concentration at 3 weeks (in vivo; [22]): 28800 ng/g | concentration at 3 weeks (in vivo; Tissue concentration, Rectum): 447 ng/g | concentration at 3 weeks (in vivo; [23]): 437 ng/g | concentration at 3 weeks (in vivo; [24]): 340 ng/g | concentration at 3 weeks (in vivo; [25]): 773 ng/g | concentration at 3 weeks (in vivo; [26]): 666 ng/g | Rectal tissues, extracellular drug, median (range) [10]: 0.45 (0.12–1.1) ng/mg of tissue

CC(C)OC(=O)[C@H](C)N[P@](=O)(CO[C@H](C)Cn1cnc2c(N)ncnc21)Oc1ccccc1 [TAF, tenofovir alafenamide]
fold higher concentrations of TFV-DP in lymphoid tissues and PBMCs over TDF [2]: ~ 6

C[C@H](Cn1cnc2c(N)ncnc21)OCP(=O)(O)O [TFV, tenofovir]
CSF, median (range) [9, 15]: not detected and BLQ | Rectal tissues, extracellular drug, median (range) [10]: 0.64 (0.18–0.87) ng/mg of tissue
